Laboratory results: US20220127297A1, “Novel Antibacterial 3"-Derivatives Of 4,6-Disubstituted 2,5-Dideoxystreptamine Aminoglycoside Antibiotics” (AGILeBiotics B.V., priority 2018, published 2022)
≈ marks a conversion by molar mass, not a printed value.

Tests used:
[1] = test system: E. coli (AAC(6′)Ie-APH(2″)Ia); assay: MIC 50, broth micro-dilution, E. coli expressing AAC(6′)Ie-APH(2″)Ia; type: cell-based, Escherichia coli
Method: (§1) Plasmid transformation. Approximately 500 ng of the pET-9b(+) (Cat. No. 69432-3, Merck), pAT21-1 (provided by Prof. Dr. Patrice Courvalin, M.D., Pasteur Institute, France; prepared according to Trieu-Cuot et. al, Mol. Gen. Genet. 198(2), 348 (1985)), pBluescript::AAC(6′)-Ie/APH(2″)-Ia (provided by Prof. Dr. Sergei Vakulenko, M.D., University of Notre Dame, Ind., USA; prepared according to S. B. Vakulenko et. al., J. Biol. Chem. 287 (52), 43262 (2012)), pBlue_lpp_aacC3_rrnC and pSET152 (Cat. No. PVT3395, Life Science Market; prepared according to Bierman et al., Gene 116 (1), 43 (1992)) plasmids, encoding APH(3′)-Ia (SEQ ID NO:2), APH(3′)-IIIa (SEQ ID NO:3), AAC(6′)Ie-APH(2″)-Ia (SEQ ID NO:4), AAC(3)-III (SEQ ID NO:1), and AAC(3)-IV (SEQ ID NO:5) respectively, were individually incubated in a vial of competent cells for 15 min on ice. The cells were subsequently heated to 42° C. for 90 s, and cooled on ice for 1 min. After addition of 900 μL LB, the cells were incubated for 1 h at 37° C. and 200 rpm. Cells were plated on LB-agar supplemented with 50 μg/mL KanaA and incubated for 18 h at 37° C. The next day, a single colony was inoculated in 5 mL LB supplemented with 50 μg/mL and grown for 18 h at 37° C. and 200 rpm. A 200 μL sample of each culture was diluted with 200 μL of 40% v/v glycerol in water, and stored at −80° C. The plasmid was purified from the remaining culture using the Plasmid Miniprep kit. Plasmid DNA was investigated by Eurofins Genomics (Germany) to confirm the identity of the aminoglycoside resistance genes.
(§2) 3.1 Against E. coli Strains
(§3) Tested reference compounds. Amikacin sulfate (Cat. No. 01693, Chem-Impex), Gentamicin sulfate (Cat. No. G4918, Sigma Aldrich).
(§4) Microbial strains. E. coli ATCC 25922, E. coli ATCC 25922/pET-9b(+), E. coli ATCC 25922/pAT21-1, E. coli ATCC 25922/pBluescript::AAC(6′)-Ie/APH(2″)-Ia, E. coli ATCC 25922/pBlue_lpp_aacC3_rrnC, E. coli ATCC 25922/pSET152.
(§5) Culture media and equipment. BBL™ Mueller Hinton Broth 2 (Lot. BCBW1143, Cat. No. 70192, Sigma); Kanamycin A (Cat. No. A1493, AppliChem); 96-well deep well plate, 1 mL (Cat. No. 0030506.200, Eppendorf); Plate lids (Cat. No. 0030131.525, Eppendorf); 96-well plate, F-bottom (Cat. No. 781602, Brand; Incubator, Infors Multitron Pro); Laminar flow (Heraeus KS12); UV/VIS meter (Eppendorf BioPhotometer Plus); Platereader (Tecan Sunrise).
(§6) Compound preparation. Compounds were prepared in MH2 media at a concentration of 5 mM and stored at 4° C. For testing, solutions of 128 μM were prepared in MH2. Out of these working solutions, 400 μL was transferred to wells in the first column of 96-well deep well plates. Each compound was transferred in triplicate. Plates were previously filled with 200 μL of MH2 media in all wells except for the wells in the first column. After compound and antibiotic addition, the compounds were serial two-fold diluted by transferring 200 μL from the first to the second column, then from the second to the third column and so on. Finally, 200 μL was removed from the last column.
(§7) Inoculum preparation. Microorganisms used were all revived from 20% glycerol (40% v/v glycerol in water was diluted with MH2) storage at −80° C. by inoculating them in 5 mL MH2. inoculums of E. coli containing a plasmid were selected for by adding 50 μg/mL KanaA. The Inoculums were grown to an optical density (measured by UV/Vis spectroscopy) of 0.6-0.8 at 600 nm. Out of these suspensions, actual inoculums were prepared by diluting them to an optical density (OD) of 0.1 in MH2 media. From these inoculums, 200 μL was transferred to each well, resulting in a final compound concentration range of 64 μM-31.3 nM. All plates were incubated at 900 rpm and 70% rH for 18 h at 37° C.
(§8) MIC determination. After 18 h of growth, 200 μL was transferred to a 96-well F-bottom plate. The optical density was determined by a plate reader at 600 nm, with 10 s shaking before reading. Triplicate measurements were averaged, and a growth curve was plotted in Microsoft Excel. […]

E. coli (APH(3′)Ia) = assay: MIC 50, broth micro-dilution, E. coli expressing APH(3′)Ia; type: cell-based, Escherichia coli
Method: as §1, §2, §3, §4, §5, §6, §7, §8

[2] = ATCC25922 harboring plasmid encoding AAC(6′)Ie-APH(2″)Ia
[3] = ATCC25922 harboring plasmid encoding APH(3′)Ia
[4] = Escherichia coli, ATCC25922, ATCC25922 harboring plasmid encoding AAC(6′)Ie-APH(2″)Ia
[5] = Escherichia coli, ATCC25922, ATCC25922 harboring plasmid encoding APH(3′)Ia

SMILES | MIC50 [1, 2] | MIC50 (E. coli (APH(3′)Ia); [3]) | MIC50 [1, 4] | MIC50 (E. coli (APH(3′)Ia); [5])
N=C(N)NC1[C@@H](O)C(OC2[C@@H](O)[C@H](O[C@H]3OC(CN)[C@@H](O)CC3N)C(N)C[C@H]2NC(=O)[C@@H](O)CCN)O[C@H](CO)[C@H]1O (stereo partly drawn) [ABX5005, Tobra-AHB-Gua] | 2 µM (≈ 1.22 µg/mL) | 2 to 4 µM |  | 
N=C(N)NC1C(O)[C@@H](CO)OC(OC2C(F)[C@H](O[C@H]3OC(CN)[C@@H](O)CC3N)C(N)C[C@H]2NC(=O)[C@@H](O)CCN)[C@@H]1O (stereo partly drawn) [ABX5006, Tobra-AHB-F-Gua] |  |  | < 0.25 µM | 0.5 µM (≈ 0.306 µg/mL)
N=C(NCCN)NC1C(O)[C@@H](CO)OC(OC2C(F)[C@H](O[C@H]3OC(CN)[C@@H](O)CC3N)C(N)C[C@H]2NC(=O)[C@@H](O)CCN)[C@@H]1O (stereo partly drawn) [ABX5020, Tobra-AHB-F-Gua-2-amino-ethyl] |  |  | 0.5 µM (≈ 0.328 µg/mL) | 1 to 2 µM (≈ 0.656 to 1.31 µg/mL)
NCC[C@H](O)C(=O)N[C@@H]1CC(N)[C@@H](O[C@H]2OC(CN)[C@@H](O)CC2N)[C@H](F)C1OC1O[C@H](CO)[C@@H](O)C(N)[C@H]1O (stereo partly drawn) [ABX5024, Tobra-AHB-F] | 1 µM (≈ 0.571 µg/mL) | 2 to 4 µM |  | 
CC(C)(C)CCNC(=N)NC1[C@@H](O)C(OC2[C@@H](F)[C@H](O[C@H]3OC(CN)[C@@H](O)CC3N)C(N)C[C@H]2NC(=O)[C@@H](O)CCN)O[C@H](CO)[C@H]1O (stereo partly drawn) [ABX5025, Tobra-AHB-F-Gua 2-tBu-ethyl] |  |  | 0.5 µM (≈ 0.348 µg/mL) | 1 µM (≈ 0.697 µg/mL)
N=C(NC[C@@H]1CCCN1)NC1[C@@H](O)C(OC2[C@@H](F)[C@H](O[C@H]3OC(CN)[C@@H](O)CC3N)C(N)C[C@H]2NC(=O)[C@@H](O)CCN)O[C@H](CO)[C@H]1O (stereo partly drawn) [ABX5026, Tobra-AHB-F-Gua (S) pyrrolidine-2-yl-methyl] |  |  | 0.25 to 0.5 µM (≈ 0.174 to 0.348 µg/mL) | 1 µM (≈ 0.696 µg/mL)
N=C(NCC1CC1)NC1[C@@H](O)C(OC2[C@@H](F)[C@H](O[C@H]3OC(CN)[C@@H](O)CC3N)C(N)C[C@H]2NC(=O)[C@@H](O)CCN)O[C@H](CO)[C@H]1O (stereo partly drawn) [ABX5027, Tobra-AHB-F-Gua cyclopropylmethyl] |  |  | 0.5 µM (≈ 0.333 µg/mL) | 1 µM (≈ 0.667 µg/mL)
N=C(NCCO)NC1[C@@H](O)C(OC2[C@@H](F)[C@H](O[C@H]3OC(CN)[C@@H](O)CC3N)C(N)C[C@H]2NC(=O)[C@@H](O)CCN)O[C@H](CO)[C@H]1O (stereo partly drawn) [ABX5029, Tobra-AHB-F-Gua 2-hydroxy-ethyl] |  |  | 0.5 to 1 µM (≈ 0.328 to 0.657 µg/mL) | 2 µM (≈ 1.31 µg/mL)
N=C(NCCCN)NC1[C@@H](O)C(OC2[C@@H](F)[C@H](O[C@H]3OC(CN)[C@@H](O)CC3N)C(N)C[C@H]2NC(=O)[C@@H](O)CCN)O[C@H](CO)[C@H]1O (stereo partly drawn) [ABX5030, Tobra-AHB-F-Gua-3-amino-propyl] |  |  | 0.25 to 0.5 µM (≈ 0.167 to 0.335 µg/mL) | 2 µM (≈ 1.34 µg/mL)
CNCCNC(=N)NC1[C@@H](O)C(OC2[C@@H](F)[C@H](O[C@H]3OC(CN)[C@@H](O)CC3N)C(N)C[C@H]2NC(=O)[C@@H](O)CCN)O[C@H](CO)[C@H]1O (stereo partly drawn) [ABX5038, Tobra-AHB-F-Gua 2-(methylamino)ethyl] |  |  | 0.25 µM (≈ 0.167 µg/mL) | 0.5 µM (≈ 0.335 µg/mL)
N=C(NC[C@@H]1CCNC1)NC1[C@@H](O)C(OC2[C@@H](F)[C@H](O[C@H]3OC(CN)[C@@H](O)CC3N)C(N)C[C@H]2NC(=O)[C@@H](O)CCN)O[C@H](CO)[C@H]1O (stereo partly drawn) [ABX5039, Tobra-AHB-F-Gua (R) pyrrolidine-3-ylmethyl] |  |  | 0.25 µM (≈ 0.174 µg/mL) | 0.25 µM (≈ 0.174 µg/mL)
N=C(NC[C@@H]1CNCCO1)NC1[C@@H](O)C(OC2[C@@H](F)[C@H](O[C@H]3OC(CN)[C@@H](O)CC3N)C(N)C[C@H]2NC(=O)[C@@H](O)CCN)O[C@H](CO)[C@H]1O (stereo partly drawn) [ABX5040, Tobra-AHB-F-Gua (S) morpholin-2-yl methyl] |  |  | 0.25 µM (≈ 0.178 µg/mL) | 1 µM (≈ 0.712 µg/mL)
